Measurements: patent US5795887A, “Method of inducing cholecystokinin agonist activity using 1,4- Benzodiazepine compounds” (Glaxo Wellcome Inc., priority 1994, dated 1998)
Ends that are not written are not given here.

Assays:
[1] = system: isolated guinea pig gallbladder; assay: Isolated guinea pig gallbladder assay (contraction, % CCK-induced maximal response); conditions: for % contraction at 1 µM / % contraction at 30 µM: Cavia porcellus; for % contraction at 1 µM: read-out: % Contraction (1 μM), expressed as % CCK-induced maximal response; for % contraction at 30 µM: read-out: % Contraction (30 μM), expressed as % CCK-induced maximal response
Protocol: 3. GUINEA PIG GALL BLADDER ASSAY
Gallbladders are removed from guinea pigs sacrificed by cervical dislocation. The isolated gallbladders are cleaned of adherent connective tissue and cut into two rings from each animal (2-6 mm in length). […] Tissues are connected via gold chains and stainless steel mounting wires to isometric force displacement transducers (Grass, Model FT03 D). Responses are then recorded on a polygraph (Grass, Model 7E).
Rings are gradually stretched (over a 120 min. period) to a basal resting tension of 1 gm which is maintained throughout the experiment. During the basal tension adjustment period, the rings are exposed to acetylcholine (10^-6 M) four times to verify tissue contractility. The tissues are then exposed to a submaximal dose of sulfated CCK-8 (Sigma, 3×10^-9 M). After obtaining a stable response, the tissues are washed out 3 times rapidly and every 5 to 10 minutes for 1 hour to reestablish a stable baseline.
As a final test, ACH (10 μM) is added to induce maximal contraction.

rat gastric emptying = assay: Rat gastric emptying assay (methyl cellulose/phenol red test meal); type: in vivo; conditions: CCK-8 intraperitoneally at 30 nmoles/kg; vehicle 66
Protocol: 7. RAT GASTRIC EMPTYING PROTOCOL
Methyl Cellulose (MC) Test Meal
1. Disperse MC in water at 80° C. at a final concentration of 1.5% under continuous stirring. Cool to room temperature.
2. Add Phenol Red (50 mg/100) to solution.
3. Keep solution stirring during entire experiment.
1. Food deprive animals for 18 hours.
2. Inject test drug/prop. glycol or prop. glycol alone intraperitoneally.
3. After 5 minutes, gavage 1.5 mL of Pheno Red/MC solution
1. After 20 minutes, decapitate animal
2. Clamp stomach at the pylorus and cardia ends, and rinse in 0.9% NaCl.
3. Place stomach in 100 mL of 0.1N NaOH, cut into small pieces, and homogenize for 30 seconds.
4. Let settle at room temperature for 60 minutes.
5. In centrifuge tube, add 5 mL of supernatant and 0.5 mL of trichloroacetic acid (29% w/v), and centrifuge at 2,800 rpm for 20 minutes.
6. Decant supernatant, and add 4 mL of 0.5N NaOH and read absorbance at a wavelength of 560 nm.
The standard stomach is determined from the phenol red recovered in stomachs of rats decapitated immediately after intragastric infusion of MC/phenol red.

## CC1=NC(NC(=O)Nc2cccc3cn[nH]c23)C(=O)N(CC(=O)N(c2ccccc2)C(C)C)c2ccccc21 (stereo not drawn) [Example 4]
[1]; Table 1, 1 μM
  % contraction at 1 µM: 23%
[1]; Table 1, 30 μM
  % contraction at 30 µM: 59%

## CC1=NC(NC(=O)Nc2ccccc2)C(=O)N(CC(=O)N(c2ccccc2)C(C)C)c2ccccc21 (stereo not drawn) [Example 2, N-Isopropyl-2-[5-methyl-2-oxo-3-(3-phenyl-ureido)-2,3-dihydro-benzo[e][1,4]diazepin-1-yl]-N-phenyl-acetamide]
[1]; Table 1, 30 μM
  % contraction at 30 µM: 88%

## CC(C)N(C(=O)CN1C(=O)C(NC(=O)Nc2ccccc2)N=C(c2ccccc2)c2ccccc21)c1ccccc1 (stereo not drawn) [Example 3]
[1]; Table 1, 30 μM
  % contraction at 30 µM: 38%

## COc1ccc(N(C(=O)CN2C(=O)[C@@H](Cc3c[nH]c4ccccc34)NC(=O)c3c(CC(=O)O)cccc32)C(C)C)cc1 [Example 24]
[1]; Table 1, 1 μM
  % Contraction (1 μM), expressed as % CCK-induced maximal response: 93%
[1]; Table 1, 30 μM
  % Contraction (30 μM), expressed as % CCK-induced maximal response: 79%

## COc1ccc(N(C(=O)CN2C(=O)[C@@H](Cc3c[nH]c4ccccc34)NC(=O)c3ccccc32)C(C)C)cc1 [Example 20, (R)-2-[3-(1H-Indol-3-ylmethyl)-2,5-dioxo-2,3,4,5-tetrahydro-benzo[e][1,4]diazepin-1-yl]-N-isopropyl-N-(4-methyoxy-phenyl)-acetamide]
[1]; Table 1, 1 μM
  % contraction at 1 µM: 31%

## CC(C)N(C(=O)CN1C(=O)C(NC(=O)c2cc3ccccc3[nH]2)N=C(c2ccccc2)c2ccccc21)c1ccccc1 (stereo not drawn) [Example 14, 1H-indolyl-2-carboxylic acid [1-(isopropyl-phenyl-carbamoylmethyl)-2-oxo-5-phenyl-2,3-dihydro-1H-benzo[e][1,4]diazepin-3-yl]-amide]
[1]; Table 1, 30 μM
  % contraction at 30 µM: 13%

## CC(C)N(C(=O)CN1C(=O)C(NC(=O)Nc2cccc(C(=O)O)c2)N=C(c2ccccc2)c2ccccc21)c1ccc(N(C)C)cc1 (stereo not drawn) [Example 9, 3-(3-{1-[(4-Dimethylamino-phenyl)-isopropyl-carbamoylmethyl]-2-oxo-5-phenyl-2,3-dihydro-1H-benzo[e][1,4]diazepin-3-yl}-ureido)-benzoic acid]
[1]; Table 1, 1 μM
  % contraction at 1 µM: 73%
[1]; Table 1, 30 μM
  % contraction at 30 µM: 62%

## COc1ccc(N(C(=O)CN2C(=O)C(CC(=O)Nc3cccc(C(=O)O)c3)N=C(c3ccccc3)c3ccccc32)C(C)C)cc1 (stereo not drawn) [Example 10, 3-(2-{1-[Isopropyl-(4-methoxy-phenyl)-carbamoylmethyl]-2-oxo-5-phenyl-2,3-dihydro-1H-benzo[e][1,4]diazepin-3-yl}-acetyl-amino)-benzoic acid]
[1]; Table 1, 1 μM
  % contraction at 1 µM: 54%

## COc1ccc(N(C(=O)CN2C(=O)C(CC(=O)Nc3ccccc3)N=C(c3ccccc3)c3ccccc32)C(C)C)cc1 (stereo not drawn) [Example 11, 2-{1-[Isopropyl-(4-methoxy-phenyl)-carbamoylmethyl]-2-oxo-5-phenyl-2,3-dihydro-1H-benzo[e][1,4]diazepin-3-yl}N-phenyl-acetamide]
[1]; Table 1, 1 μM
  % contraction at 1 µM: 56%
[1]; Table 1, 30 μM
  % contraction at 30 µM: 43%

## CC(C)N(C(=O)CN1C(=O)C(NC(=O)Nc2ccccc2)[N+]([O-])=C(c2ccccc2)c2ccccc21)c1ccccc1 (stereo not drawn) [Example 16, N-Isopropyl-2-[4-N-oxide-2-oxo-5-phenyl-3-(3-phenyl-ureido)-2,3-dihydro-benzo[e][1,4]diazepin-1-yl]-N-phenyl-acetamide]
[1]; Table 1, 30 μM
  % contraction at 30 µM: 67%

## COc1ccc(N(C(=O)CN2C(=O)C(NC(=O)Nc3ccccc3)N=C(c3cccnc3)c3ccccc32)C(C)C)cc1 (stereo not drawn) [Example 18, N-Isopropyl-N-(4-methoxy-phenyl)-2-[2-oxo-3-(3-phenyl-ureido)-5-pyridin-3-yl-2,3-dihydro-benzo[e][1,4]diazepin-1-yl]-acetamide]
[1]; Table 1, 1 μM
  % contraction at 1 µM: 75%

## CCK-8: CCK8 is the Cterminal octapeptide of CCK (DYMGWMDF; ends and bridges not checked; UniProt P06307 96-103, looked up) [reference compound]
Rat gastric emptying
  rat gastric emptying: % emptying: 0%
[1]; Table 2, CCK-8 delivered at 1 μM
  Isolated guinea pig gallbladder: % contraction: 100%

## CC(C)N(C(=O)CN1C(=O)C(NC(=O)Nc2ccccc2)n2cnnc2-c2ccccc21)c1ccccc1 (stereo not drawn) [Example 19, N-Isopropyl-N-phenyl-2-[5-oxo-4-(3-phenyl-ureido)-4,5-dihydro-1,2,3a,6-tetraaza-benzo[e]azulen-6-yl]-acetamide]
[1]; Table 1, 1 μM
  % contraction at 1 µM: 83%
[1]; Table 1, 30 μM
  % contraction at 30 µM: 58%

## COc1ccc(N(C(=O)CN2C(=O)C(NC(=O)Nc3cccc(C(=O)O)c3)N=C(c3ccccc3)c3ccccc32)C(C)C)cc1 (stereo not drawn) [Example 8, 3-(3-{1-[Isopropyl-(4-methoxy-phenyl)-carbamoylmethyl]-2-oxo-5-phenyl-2,3-dihydro-1H-benzo[e][1,4]diazepin-3yl}-ureido)-benzoic acid]
[1]; Table 1, 1 μM
  % contraction at 1 µM: 59%
[1]; Table 1, 30 μM
  % contraction at 30 µM: 86%

## CC(C)N(C(=O)CN1C(=O)[C@@H](NC(=O)Nc2cccc(C(=O)O)c2)N=C(c2ccccc2)c2ccccc21)c1ccccc1 [Example 12, (S)-3-{3-[1-(Isopropyl-phenyl-carbamoylmethyl)-2-oxo-5-phenyl-2,3-dihydro-1H-benzo[e][1,4]diazepin-3-yl]-ureido}-benzoic acid]
[1]; Table 1, 30 μM
  % contraction at 30 µM: 80%

## COc1ccc(N(C(=O)CN2C(=O)C(Cc3c[nH]c4ccccc34)N=C(c3ccccc3)c3ccccc32)C(C)C)cc1 (stereo not drawn) [Example 17, 3-{1-[Isopropyl-(4-methoxy-phenyl)-carbamoylmethyl]-2-oxo-5-phenyl-2,3-dihydro-1H-benzo[e][1,4]diazepin-3-ylmethyl}-indolyl]
[1]; Table 1, 1 μM
  % contraction at 1 µM: 24%

## CC(C)N(C(=O)CN1C(=O)C(NC(=O)Nc2cccc(C(=O)O)c2)N=C(c2ccccc2)c2ccccc21)c1ccccc1 (stereo not drawn) [Example 5, 3-{3-[1-(Isopropyl-phenyl-carbamoylmethyl)-2-oxo-5-phenyl-2,3-dihydro-1H-benzo[e][1,4]diazepin-3-yl]-ureido}-benzoic acid]
[1]; Table 1, 30 μM
  % contraction at 30 µM: 82%

## CC(C)N(C(=O)CN1C(=O)C(NC(=O)c2cc3ccccc3n2CC(=O)O)N=C(c2ccccc2)c2ccccc21)c1ccccc1 (stereo not drawn) [Example 15, {2-[1-(Isopropyl-phenyl-carbamoylmethyl)-2-oxo-5-phenyl-2,3-dihydro-1H-benzo[e][1,4]diazepin-3-ylcarbamoyl]-indol-1-yl}-acetic acid]
[1]; Table 1, 30 μM
  % contraction at 30 µM: 52%

## CC(C)N(C(=O)CN1C(=O)C(NC(=O)c2ccc(Cl)cc2N)N=C(c2ccccc2)c2ccccc21)c1ccccc1 (stereo not drawn) [Example 6, 2-Amino-4-chloro-N-[1-(isopropyl-phenyl-carbamoylmethyl)-5-phenyl-2-oxo-5-phenyl-2,3-dihydro-1H-benzo[e][1,4]diazepin-3-yl]-benzamide]
[1]; Table 1, 1 μM
  % contraction at 1 µM: 41%

## CC(C)N(C(=O)CN1C(=O)C(NC(=O)Nc2cccc(-c3nn[nH]n3)c2)N=C(c2ccccc2)c2ccccc21)c1ccccc1 (stereo not drawn) [Example 1, 1N-Isopropyl-2-(2-oxo-5-phenyl-3-{3-[3-(1H-tetrazol-5-yl)-phenyl]-ureido}-2,3-dihydro-benzo[e][1,4]diazepin-1-yl)-N-phenyl-acetamide]
[1]; Table 1, 30 μM
  % contraction at 30 µM: 63%

## COc1ccc(N(C(=O)CN2C(=O)[C@@H](Cc3c[nH]c4ccccc34)n3cnnc3-c3ccccc32)C(C)C)cc1 [Example 23, (R)-2-[4-(1H-Indol-3-ylmethyl)-5-oxo-6,5-dihydro-1,2,3a,6-tetraaza-benzo[e]azulene6-yl}-N-isopropyl-N-(4-methoxy-phenyl)-acetamide]
[1]; Table 1, 1 μM
  % contraction at 1 µM: 36%

## COc1ccc(N(C(=O)CN2C(=O)[C@H](Cc3c[nH]c4ccccc34)n3cnnc3-c3ccccc32)C(C)C)cc1 [Example 22, S-2-[4-(1H-Indol-3-ylmethyl)-5-oxo-6,5-dihydro-1,2,3a,6-tetraaza-benzo[e]azulene-6-yl}-N-isopyropyl-N-(4-methoxy-phenyl)acetamide]
[1]; Table 1, 1 μM
  % contraction at 1 µM: 36%

## CC1=NC(NC(=O)Nc2cccc(C(=O)O)c2)C(=O)N(CC(=O)N(c2ccccc2)C(C)C)c2ccccc21 (stereo not drawn) [Example 7, 3-{3-[1-(Isopropyl-phenyl-carbamoylmethyl)-5-methyl-2-oxo-2,3-dihydro-1H-benzo[e][1,4]diazepin-3-yl]-ureido}-benzoic acid]
[1]; Table 1, 1 μM
  % contraction at 1 µM: 16%
[1]; Table 1, 30 μM
  % contraction at 30 µM: 61%

## CC(C)N(C(=O)CN1C(=O)[C@H](NC(=O)Nc2cccc(C(=O)O)c2)N=C(c2ccccc2)c2ccccc21)c1ccccc1 [Example 13, (R)-3-{3-[1-(Isopropyl-phenyl-carbamoylmethyl)-2-oxo-5-phenyl-2,3-dihydro-1H-benzo[e][1,4]diazepin-3-yl]-ureido}-benzoic acid]
[1]; Table 1, 30 μM
  % contraction at 30 µM: 77%

## COc1ccc(N(C(=O)CN2C(=O)[C@H](Cc3c[nH]c4ccccc34)NC(=O)c3ccccc32)C(C)C)cc1 [Example 21, (S)-2-[3-(1H-Indol-3-ylmethyl)-2,5-dioxo-2,3,4,5-tetrahydro-benzo[e][1,4]diazepin-1-yl]-N-isopropyl-N-(4-methyoxy-phenyl)-acetamide]
[1]; Table 1, 1 μM
  % contraction at 1 µM: 54%
